We go through 30 compounds from patent publication US8796289B2 (AbbVie Inc., priority 2011, dated 2014).

GST-tagged-Wee1 kinase, sequence (P30291 whole entry): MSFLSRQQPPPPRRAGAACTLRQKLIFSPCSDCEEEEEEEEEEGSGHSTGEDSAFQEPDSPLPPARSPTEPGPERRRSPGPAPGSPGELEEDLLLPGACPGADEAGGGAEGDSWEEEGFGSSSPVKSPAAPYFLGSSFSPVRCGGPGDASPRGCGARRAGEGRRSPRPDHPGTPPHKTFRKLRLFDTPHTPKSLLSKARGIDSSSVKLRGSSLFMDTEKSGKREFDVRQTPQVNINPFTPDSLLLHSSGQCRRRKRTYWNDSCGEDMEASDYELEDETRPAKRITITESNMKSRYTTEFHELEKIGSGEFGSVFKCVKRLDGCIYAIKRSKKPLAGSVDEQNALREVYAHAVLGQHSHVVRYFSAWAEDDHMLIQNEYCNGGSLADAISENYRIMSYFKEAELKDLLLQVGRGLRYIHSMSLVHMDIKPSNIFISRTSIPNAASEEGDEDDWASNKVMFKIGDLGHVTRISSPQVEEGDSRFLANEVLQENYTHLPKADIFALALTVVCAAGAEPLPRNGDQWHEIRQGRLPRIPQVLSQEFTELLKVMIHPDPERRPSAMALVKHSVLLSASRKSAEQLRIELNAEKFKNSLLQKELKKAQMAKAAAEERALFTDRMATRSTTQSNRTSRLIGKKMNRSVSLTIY

The assay addresses GST-tagged-Wee1 kinase (Homo sapiens, UniProt P30291). Put plainly: Wee1 time-resolved fluorescence equilibrium binding assay (displacement of Oregon Green-labeled ATP-competitive kinase probe). Here is the method: Wee1 kinase was assayed using a time-resolved fluorescence equilibrium binding assay monitoring displacement of a rapidly reversible Oregon Green-labeled ATP-competitive kinase probe (N-(2-(2-(2-(4-(4-(5-chloro-4-(2-(1-hydroxycyclobutyl)thiazol-5-yl)-1H-pyrrolo[2,3-b]pyridin-2-yl)phenyl)piperazin-1-yl)ethoxy)ethoxy)ethyl)-2′,7′-difluoro-3′,6′-dihydroxy-3-oxo-3H-spiro[isobenzofuran-1,9′-xanthene]-5-carboxamide) by competitive Wee1 inhibitors.
A word on the Ki: it is the dissociation constant of the complex between target and ligand, obtained from inhibition or displacement. In turn, `CN1CCCC(c2ccc(Nc3ncc4c(=O)n(-c5c(Cl)cccc5Cl)nc(C(F)F)c4n3)cc2)C1` (stereo not drawn) [Example 486, 6-(2,6-dichlorophenyl)-8-(difluoromethyl)-2-{[4-(1-methylpiperidin-3-yl)phenyl]amino}pyrimido[4,5-d]pyridazin-5(6H)-one] displayed an inhibition constant (Ki) of 0.13 nM. The compound `Cc1nn(-c2c(Cl)cncc2Cl)c(=O)c2cnc(Nc3ccc4c(c3)CN(C)CC43CC3)nc12` [Example 487, 6-(3,5-dichloropyridin-4-yl)-8-methyl-2-[(2′-methyl-2′,3′-dihydro-1′H-spiro[cyclopropane-1,4′-isoquinolin]-7′-yl)amino]pyrimido[4,5-d]pyridazin-5(6H)-one] came in with an inhibition constant Ki of 0.27 nM. The figure for `Cc1nn(-c2c(Cl)cncc2Cl)c(=O)c2cnc(Nc3ccc4c(c3)CN(C)C4(C)C)nc12` [Example 488, 6-(3,5-dichloropyridin-4-yl)-8-methyl-2-[(1,1,2-trimethyl-2,3-dihydro-1H-isoindol-5-yl)amino]pyrimido[4,5-d]pyridazin-5(6H)-one] is 0.29 nM; for `Cc1nn(-c2c(Cl)cccc2Cl)c(=O)c2cnc(Nc3ccc4c(c3)CNC4(C)C)nc12` [Example 489, 6-(2,6-dichlorophenyl)-2-[(1,1-dimethyl-2,3-dihydro-1H-isoindol-5-yl)amino]-8-methylpyrimido[4,5-d]pyridazin-5(6H)-one] it is 0.089 nM; for `Cc1nn(-c2c(Cl)cccc2Cl)c(=O)c2cnc(Nc3ccc4c(c3)CN(C)CC4)nc12` [Example 490, 6-(2,6-dichlorophenyl)-8-methyl-2-[(2-methyl-1,2,3,4-tetrahydroisoquinolin-7-yl)amino]pyrimido[4,5-d]pyridazin-5(6H)-one] it is 0.11 nM. The same measure for `Cc1nn(-c2c(Cl)cccc2Cl)c(=O)c2cnc(Nc3ccc4c(c3)CN(C)C4)nc12` [Example 491, 6-(2,6-dichlorophenyl)-8-methyl-2-[(2-methyl-2,3-dihydro-1H-isoindol-5-yl)amino]pyrimido[4,5-d]pyridazin-5(6H)-one]: 0.26 nM; for `CCc1nn(-c2c(Cl)cccc2Cl)c(=O)c2cnc(Nc3ccc4c(c3)CCN(C)C4)nc12` [Example 492, 6-(2,6-dichlorophenyl)-8-ethyl-2-[(2-methyl-1,2,3,4-tetrahydroisoquinolin-6-yl)amino]pyrimido[4,5-d]pyridazin-5(6H)-one]: 0.56 nM. The compound `CCc1nn(-c2c(Cl)cccc2Cl)c(=O)c2cnc(Nc3ccc4c(c3)CN(C)CC4)nc12` [Example 493, 6-(2,6-dichlorophenyl)-8-ethyl-2-[(2-methyl-1,2,3,4-tetrahydroisoquinolin-7-yl)amino]pyrimido[4,5-d]pyridazin-5(6H)-one] had a Ki of 0.86 nM. On to `CCc1nn(-c2c(Cl)cccc2Cl)c(=O)c2cnc(Nc3ccc4c(c3)CN(C)C4)nc12` [Example 494, 6-(2,6-dichlorophenyl)-8-ethyl-2-[(2-methyl-2,3-dihydro-1H-isoindol-5-yl)amino]pyrimido[4,5-d]pyridazin-5(6H)-one], for which affinity was put at a Ki of 0.31 nM. In turn, `Cc1cccc(Cl)c1-n1nc(C)c2nc(Nc3ccc4c(c3)CNCC4)ncc2c1=O` [Example 495, 6-(2-chloro-6-methylphenyl)-8-methyl-2-(1,2,3,4-tetrahydroisoquinolin-7-ylamino)pyrimido[4,5-d]pyridazin-5(6H)-one] displayed an inhibitory constant (Ki) of 0.16 nM.

`Cc1cccc(Cl)c1-n1nc(C)c2nc(Nc3ccc4c(c3)CCNC4)ncc2c1=O` [Example 496, 6-(2-chloro-6-methylphenyl)-8-methyl-2-(1,2,3,4-tetrahydroisoquinolin-6-ylamino)pyrimido[4,5-d]pyridazin-5(6H)-one] had a Ki of 0.34 nM. For `Cc1cccc(Cl)c1-n1nc(C)c2nc(Nc3ccc4c(c3)CNCC4(C)C)ncc2c1=O` [Example 497, 6-(2-chloro-6-methylphenyl)-2-[(4,4-dimethyl-1,2,3,4-tetrahydroisoquinolin-7-yl)amino]-8-methylpyrimido[4,5-d]pyridazin-5(6H)-one], the affinity corresponds to a Ki of 0.26 nM. The Ki values of the last two compounds are within 1.5-fold of each other. The compound `Cc1cccc(Cl)c1-n1nc(C)c2nc(Nc3ccc4c(c3)CN(C)CC4(C)C)ncc2c1=O` [Example 498, 6-(2-chloro-6-methylphenyl)-8-methyl-2-[(2,4,4-trimethyl-1,2,3,4-tetrahydroisoquinolin-7-yl)amino]pyrimido[4,5-d]pyridazin-5(6H)-one] came in with an inhibition constant (Ki) of 0.23 nM. The same measure for `Cc1cccc(Cl)c1-n1nc(C)c2nc(Nc3ccc4c(c3)CN(CCO)CC4)ncc2c1=O` [Example 499, 6-(2-chloro-6-methylphenyl)-2-{[2-(2-hydroxyethyl)-1,2,3,4-tetrahydroisoquinolin-7-yl]amino}-8-methylpyrimido[4,5-d]pyridazin-5(6H)-one]: 0.21 nM; for `Cc1cccc(Cl)c1-n1nc(C)c2nc(Nc3ccc(N4CCN(CCCN(C)C)CC4)cc3)ncc2c1=O` [Example 500, 6-(2-chloro-6-methylphenyl)-2-[(4-{4-[3-(dimethylamino)propyl]piperazin-1-yl}phenyl)amino]-8-methylpyrimido[4,5-d]pyridazin-5(6H)-one]: 0.51 nM; for `Cc1cccc(Cl)c1-n1nc(C)c2nc(Nc3ccc(NC4CCN(C)CC4)cc3)ncc2c1=O` [Example 501, 6-(2-chloro-6-methylphenyl)-8-methyl-2-({4-[(1-methylpiperidin-4-yl)amino]phenyl}amino)pyrimido[4,5-d]pyridazin-5(6H)-one]: 0.32 nM. The same measure for `Cc1cccc(Cl)c1-n1nc(C)c2nc(Nc3ccc(OC4CCN(C)CC4)cc3)ncc2c1=O` [Example 502, 6-(2-chloro-6-methylphenyl)-8-methyl-2-({4-[(1-methylpiperidin-4-yl)oxy]phenyl}amino)pyrimido[4,5-d]pyridazin-5(6H)-one]: 0.36 nM. The figure for `Cc1nn(-c2c(Cl)cccc2Cl)c(=O)c2cnc(Nc3ccc(OC4CCN(C)CC4)cc3)nc12` [Example 503, 6-(2,6-dichlorophenyl)-8-methyl-2-({4-[(1-methylpiperidin-4-yl)oxy]phenyl}amino)pyrimido[4,5-d]pyridazin-5(6H)-one] is 0.1 nM; for `Cc1nn(-c2c(Cl)cccc2Cl)c(=O)c2cnc(Nc3cccc(N4CCCCC4)c3)nc12` [Example 504, 6-(2,6-dichlorophenyl)-8-methyl-2-{[3-(piperidin-1-yl)phenyl]amino}pyrimido[4,5-d]pyridazin-5(6H)-one] it is 3.7 nM. As for `Cc1nn(-c2c(Cl)cccc2Cl)c(=O)c2cnc(Nc3cccc(N4CCOCC4)c3)nc12` [Example 505, 6-(2,6-dichlorophenyl)-8-methyl-2-{[3-(morpholin-4-yl)phenyl]amino}pyrimido[4,5-d]pyridazin-5(6H)-one], the Ki turned out to be 2.7 nM.

On to `Cc1nn(-c2c(Cl)cccc2Cl)c(=O)c2cnc(Nc3cccc(N4CCNCC4)c3)nc12` [Example 506, 6-(2,6-dichlorophenyl)-8-methyl-2-{[3-(piperazin-1-yl)phenyl]amino}pyrimido[4,5-d]pyridazin-5(6H)-one], for which affinity was put at a Ki of 0.54 nM. The figure for `Cc1nn(-c2c(Cl)cccc2Cl)c(=O)c2cnc(Nc3cccc(N4CCN(CCCCl)CC4)c3)nc12` [Example 507, 2-({3-[4-(3-chloropropyl)piperazin-1-yl]phenyl}amino)-6-(2,6-dichlorophenyl)-8-methylpyrimido[4,5-d]pyridazin-5(6H)-one] is 2.4 nM. The figure for `Cc1nn(-c2c(Cl)cccc2Cl)c(=O)c2cnc(Nc3cccc(N4CCN(C5CCC5)CC4)c3)nc12` [Example 508, 2-{[3-(4-cyclobutylpiperazin-1-yl)phenyl]amino}-6-(2,6-dichlorophenyl)-8-methylpyrimido[4,5-d]pyridazin-5(6H)-one] is 2 nM; for `Cc1nn(-c2c(Cl)cccc2Cl)c(=O)c2cnc(Nc3cccc(N4CCN(C5CCOCC5)CC4)c3)nc12` [Example 509, 6-(2,6-dichlorophenyl)-8-methyl-2-({3-[4-(tetrahydro-2H-pyran-4-yl)piperazin-1-yl]phenyl}amino)pyrimido[4,5-d]pyridazin-5(6H)-one] it is 1.2 nM; for `Cc1nn(-c2c(Cl)cccc2Cl)c(=O)c2cnc(Nc3cccc(N4CCN(CCCO)CC4)c3)nc12` [Example 510, 6-(2,6-dichlorophenyl)-2-({3-[4-(3-hydroxypropyl)piperazin-1-yl]phenyl}amino)-8-methylpyrimido[4,5-d]pyridazin-5(6H)-one] it is 1.1 nM. Consider `Cc1nn(-c2c(Cl)cccc2Cl)c(=O)c2cnc(Nc3cccc(N4CCN(C)CC4)c3)nc12` [Example 511, 6-(2,6-dichlorophenyl)-8-methyl-2-{[3-(4-methylpiperazin-1-yl)phenyl]amino}pyrimido[4,5-d]pyridazin-5(6H)-one], for which affinity was put at a Ki of 0.46 nM. `Cc1nn(-c2c(Cl)cccc2Cl)c(=O)c2cnc(Nc3cccc(N4CCN(C5COC5)CC4)c3)nc12` [Example 512, 6-(2,6-dichlorophenyl)-8-methyl-2-({3-[4-(oxetan-3-yl)piperazin-1-yl]phenyl}amino)pyrimido[4,5-d]pyridazin-5(6H)-one]: the inhibition constant Ki came out at 1.4 nM. The compound `Cc1nn(-c2c(Cl)cccc2Cl)c(=O)c2cnc(Nc3cccc(NCCN4CCOCC4)c3)nc12` [Example 513, 6-(2,6-dichlorophenyl)-8-methyl-2-[(3-{[2-(morpholin-4-yl)ethyl]amino}phenyl)amino]pyrimido[4,5-d]pyridazin-5(6H)-one] showed a Ki of 1.1 nM. The same measure for `Cc1nn(-c2c(Cl)cccc2Cl)c(=O)c2cnc(Nc3cccc(N4CCN(CCCN(C)C)CC4)c3)nc12` [Example 515, 6-(2,6-dichlorophenyl)-2-[(3-{4-[3-(dimethylamino)propyl]piperazin-1-yl}phenyl)amino]-8-methylpyrimido[4,5-d]pyridazin-5(6H)-one]: 0.19 nM. The compound `Cc1nn(-c2c(Cl)cccc2Cl)c(=O)c2cnc(Nc3cccc(OC4CCN(C)CC4)c3)nc12` [Example 516, 6-(2,6-dichlorophenyl)-8-methyl-2-({3-[(1-methylpiperidin-4-yl)oxy]phenyl}amino)pyrimido[4,5-d]pyridazin-5(6H)-one] showed an inhibition constant (Ki) of 0.36 nM.
